# What was measured:
# Orexin receptor type 2 = target: T1, Orexin receptor type 2 (Homo sapiens, UniProt O43614); assay: Displacement of […]5IBOM from OX2R (unknown origin) transfected in CHO cells assessed as inhibition constant incubated for 1.5 hrs by automated gamma-counter analysis; format: cell-based
# T1 sequence (O43614 whole entry): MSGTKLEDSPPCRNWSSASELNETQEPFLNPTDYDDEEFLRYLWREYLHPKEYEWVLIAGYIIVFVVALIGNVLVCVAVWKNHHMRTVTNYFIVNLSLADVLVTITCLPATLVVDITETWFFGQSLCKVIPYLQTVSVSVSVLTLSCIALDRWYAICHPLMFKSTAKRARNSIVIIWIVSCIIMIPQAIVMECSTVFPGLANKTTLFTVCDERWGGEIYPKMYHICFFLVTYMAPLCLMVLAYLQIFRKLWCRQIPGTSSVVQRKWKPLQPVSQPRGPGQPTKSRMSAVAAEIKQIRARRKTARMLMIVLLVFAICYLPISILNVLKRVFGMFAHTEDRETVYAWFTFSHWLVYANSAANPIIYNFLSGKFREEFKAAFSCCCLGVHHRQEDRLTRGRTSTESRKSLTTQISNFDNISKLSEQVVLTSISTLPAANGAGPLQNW
# [1] = target: T2, Orexin/Hypocretin receptor type 1 (Homo sapiens, UniProt O43613); assay: Displacement of […]5IBOM from OX1R (unknown origin) transfected in CHO cells assessed as inhibition constant incubated for 1.5 hrs by automated gamma-counter analysis; format: cell-based
# T2 sequence (O43613 whole entry): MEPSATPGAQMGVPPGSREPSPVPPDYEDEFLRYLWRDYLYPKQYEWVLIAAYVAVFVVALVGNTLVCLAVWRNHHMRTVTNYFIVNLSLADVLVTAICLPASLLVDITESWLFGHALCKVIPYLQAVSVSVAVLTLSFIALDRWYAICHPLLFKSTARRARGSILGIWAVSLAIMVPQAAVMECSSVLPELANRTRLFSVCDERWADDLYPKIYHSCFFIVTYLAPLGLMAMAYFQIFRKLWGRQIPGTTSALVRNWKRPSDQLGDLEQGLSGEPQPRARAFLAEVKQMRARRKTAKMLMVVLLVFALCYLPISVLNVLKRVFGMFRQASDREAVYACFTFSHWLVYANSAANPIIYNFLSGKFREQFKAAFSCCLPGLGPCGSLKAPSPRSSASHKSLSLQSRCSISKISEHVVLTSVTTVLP
# [2] = Selectivity ratio of Ki for OX2R (unknown origin) transfected in CHO cells to Ki for OX1R (unknown origin) transfected in CHO cells; format: cell-based
# [3] = Biodistribution in male ddY mouse liver administered intravenously and measured at 60 mins postinjection by gamma counter analysis; format: ADME, organism-based; details: in vivo, iv, 1 h
# [4] = Biodistribution in male ddY mouse stomach administered intravenously and measured per organ at 2 mins postinjection by gamma counter analysis; format: ADME, organism-based; details: in vivo, iv
# [5] = Biodistribution in male ddY mouse heart administered intravenously and measured at 60 mins postinjection by gamma counter analysis; format: ADME, organism-based; details: in vivo, iv, 1 h
# [6] = Biodistribution in male ddY mouse lung administered intravenously and measured at 60 mins postinjection by gamma counter analysis; format: ADME, organism-based; details: in vivo, iv, 1 h
# [7] = Biodistribution in male ddY mouse lung administered intravenously and measured at 30 mins postinjection by gamma counter analysis; format: ADME, organism-based; details: in vivo, iv, 0.5 h
# [8] = Biodistribution in male ddY mouse brain administered intravenously and measured at 10 mins postinjection by gamma counter analysis; format: ADME, organism-based; details: in vivo, iv
# [9] = Biodistribution in male ddY mouse liver administered intravenously and measured at 10 mins postinjection by gamma counter analysis; format: ADME, organism-based; details: in vivo, iv
# [10] = Biodistribution in male ddY mouse pancreas administered intravenously and measured at 30 mins postinjection by gamma counter analysis; format: ADME, organism-based; details: in vivo, iv, 0.5 h
# [11] = Biodistribution in male ddY mouse brain administered intravenously and measured at 60 mins postinjection by gamma counter analysis; format: ADME, organism-based; details: in vivo, iv, 1 h
# [12] = Biodistribution in male ddY mouse bone administered intravenously and measured at 30 mins postinjection by gamma counter analysis; format: ADME, organism-based, Bone element; details: in vivo, iv, 0.5 h
# [13] = Biodistribution in male ddY mouse pancreas administered intravenously and measured at 10 mins postinjection by gamma counter analysis; format: ADME, organism-based; details: in vivo, iv
# [14] = Biodistribution in male ddY mouse spleen administered intravenously and measured at 10 mins postinjection by gamma counter analysis; format: ADME, organism-based; details: in vivo, iv
# [15] = Biodistribution in male ddY mouse kidney administered intravenously and measured at 2 mins postinjection by gamma counter analysis; format: ADME, organism-based; details: in vivo, iv
# [16] = Biodistribution in male ddY mouse heart administered intravenously and measured at 30 mins postinjection by gamma counter analysis; format: ADME, organism-based; details: in vivo, iv, 0.5 h
# [17] = Biodistribution in male ddY mouse pancreas administered intravenously and measured at 2 mins postinjection by gamma counter analysis; format: ADME, organism-based; details: in vivo, iv
# [18] = Biodistribution in male ddY mouse brain administered intravenously and measured at 30 mins postinjection by gamma counter analysis; format: ADME, organism-based; details: in vivo, iv, 0.5 h
# [19] = Biodistribution in male ddY mouse bone administered intravenously and measured at 60 mins postinjection by gamma counter analysis; format: ADME, organism-based, Bone element; details: in vivo, iv, 1 h
# [20] = Biodistribution in male ddY mouse intestine administered intravenously and measured at 10 mins postinjection by gamma counter analysis; format: ADME, organism-based; details: in vivo, iv
# [21] = Biodistribution in male ddY mouse stomach administered intravenously and measured per organ at 60 mins postinjection by gamma counter analysis; format: ADME, organism-based; details: in vivo, iv, 1 h
# [22] = Biodistribution in male ddY mouse blood administered intravenously and measured at 60 mins postinjection by gamma counter analysis; format: ADME, organism-based; details: in vivo, iv, 1 h
# [23] = Biodistribution in male ddY mouse bone administered intravenously and measured at 10 mins postinjection by gamma counter analysis; format: ADME, organism-based, Bone element; details: in vivo, iv
# [24] = Biodistribution in male ddY mouse lung administered intravenously and measured at 2 mins postinjection by gamma counter analysis; format: ADME, organism-based; details: in vivo, iv
# [25] = Biodistribution in male ddY mouse spleen administered intravenously and measured at 30 mins postinjection by gamma counter analysis; format: ADME, organism-based; details: in vivo, iv, 0.5 h
# [26] = Biodistribution in male ddY mouse lung administered intravenously and measured at 10 mins postinjection by gamma counter analysis; format: ADME, organism-based; details: in vivo, iv
# [27] = Biodistribution in male ddY mouse intestine administered intravenously and measured at 2 mins postinjection by gamma counter analysis; format: ADME, organism-based; details: in vivo, iv
# [28] = Biodistribution in male ddY mouse liver administered intravenously and measured at 30 mins postinjection by gamma counter analysis; format: ADME, organism-based; details: in vivo, iv, 0.5 h
# [29] = Biodistribution in male ddY mouse stomach administered intravenously and measured per organ at 10 mins postinjection by gamma counter analysis; format: ADME, organism-based; details: in vivo, iv
# [30] = Biodistribution in male ddY mouse spleen administered intravenously and measured at 60 mins postinjection by gamma counter analysis; format: ADME, organism-based; details: in vivo, iv, 1 h
# [31] = Biodistribution in male ddY mouse intestine administered intravenously and measured at 60 mins postinjection by gamma counter analysis; format: ADME, organism-based; details: in vivo, iv, 1 h
# [32] = Biodistribution in male ddY mouse stomach administered intravenously and measured per organ at 30 mins postinjection by gamma counter analysis; format: ADME, organism-based; details: in vivo, iv, 0.5 h
# [33] = Biodistribution in male ddY mouse pancreas administered intravenously and measured at 60 mins postinjection by gamma counter analysis; format: ADME, organism-based; details: in vivo, iv, 1 h
# [34] = Biodistribution in male ddY mouse kidney administered intravenously and measured at 10 mins postinjection by gamma counter analysis; format: ADME, organism-based; details: in vivo, iv
# [35] = Biodistribution in male ddY mouse liver administered intravenously and measured at 2 mins postinjection by gamma counter analysis; format: ADME, organism-based; details: in vivo, iv
# [36] = Biodistribution in male ddY mouse heart administered intravenously and measured at 10 mins postinjection by gamma counter analysis; format: ADME, organism-based; details: in vivo, iv
# [37] = Biodistribution in male ddY mouse heart administered intravenously and measured at 2 mins postinjection by gamma counter analysis; format: ADME, organism-based; details: in vivo, iv
# [38] = Biodistribution in male ddY mouse blood administered intravenously and measured at 10 mins postinjection by gamma counter analysis; format: ADME, organism-based; details: in vivo, iv
# [39] = Biodistribution in male ddY mouse kidney administered intravenously and measured at 30 mins postinjection by gamma counter analysis; format: ADME, organism-based; details: in vivo, iv, 0.5 h
# [40] = Biodistribution in male ddY mouse blood administered intravenously and measured at 30 mins postinjection by gamma counter analysis; format: ADME, organism-based; details: in vivo, iv, 0.5 h
# [41] = Biodistribution in male ddY mouse spleen administered intravenously and measured at 2 mins postinjection by gamma counter analysis; format: ADME, organism-based; details: in vivo, iv
# [42] = Biodistribution in male ddY mouse bone administered intravenously and measured at 2 mins postinjection by gamma counter analysis; format: ADME, organism-based, Bone element; details: in vivo, iv
# [43] = Biodistribution in male ddY mouse intestine administered intravenously and measured at 30 mins postinjection by gamma counter analysis; format: ADME, organism-based; details: in vivo, iv, 0.5 h
# [44] = Biodistribution in male ddY mouse blood administered intravenously and measured at 2 mins postinjection by gamma counter analysis; format: ADME, organism-based; details: in vivo, iv
# [45] = Biodistribution in male ddY mouse brain administered intravenously and measured at 2 mins postinjection by gamma counter analysis; format: ADME, organism-based; details: in vivo, iv
# [46] = Biodistribution in male ddY mouse kidney administered intravenously and measured at 60 mins postinjection by gamma counter analysis; format: ADME, organism-based; details: in vivo, iv, 1 h
smiles,measurement,setting,value
C[C@H]1CN(c2nc3ccc(F)cc3s2)CCCN1C(=O)c1cc(C(F)(F)F)ccc1-n1nccn1,Ki,Orexin receptor type 2,19 nM
same,Ki,[1],6.67 nM
same,Ratio Ki,[2],2.85
Cc1ccc(-n2nccn2)c(C(=O)N2CCCN(c3nc4ccc(F)cc4s3)C[C@@H]2C)c1,Ki,Orexin receptor type 2,20.6 nM
same,Ki,[1],2.14 nM
same,Ratio Ki,[2],9.63
C[C@H]1CN(c2nc3ccccc3s2)CCCN1C(=O)c1cc(F)ccc1-n1nccn1,Ki,Orexin receptor type 2,62.8 nM
same,Ki,[1],2.33 nM
same,Ratio Ki,[2],26.9
Cc1ccc(-n2nccn2)c(C(=O)N2CCCN(c3nc4ccc([18F])cc4s3)C[C@@H]2C)c1,Drug uptake,[3],7.53 % ID/g
same,Drug uptake,[4],1.15 %ID
same,Drug uptake,[5],0.43 % ID/g
same,Drug uptake,[6],0.48 % ID/g
same,Drug uptake,[7],1.2 % ID/g
same,Drug uptake,[8],0.98 % ID/g
same,Drug uptake,[9],26.9 % ID/g
same,Drug uptake,[10],0.67 % ID/g
same,Drug uptake,[11],0.11 % ID/g
same,Drug uptake,[12],13.2 % ID/g
same,Drug uptake,[13],2.95 % ID/g
same,Drug uptake,[14],2.38 % ID/g
same,Drug uptake,[15],10.3 % ID/g
same,Drug uptake,[16],1.23 % ID/g
same,Drug uptake,[17],5.89 % ID/g
same,Drug uptake,[18],0.22 % ID/g
same,Drug uptake,[19],16 % ID/g
same,Drug uptake,[20],6.23 % ID/g
same,Drug uptake,[21],0.87 %ID
same,Drug uptake,[22],1.46 % ID/g
same,Drug uptake,[23],4.94 % ID/g
same,Drug uptake,[24],6.58 % ID/g
same,Drug uptake,[25],0.9 % ID/g
same,Drug uptake,[26],3.43 % ID/g
same,Drug uptake,[27],3.33 % ID/g
same,Drug uptake,[28],14.7 % ID/g
same,Drug uptake,[29],1.65 %ID
same,Drug uptake,[30],0.42 % ID/g
same,Drug uptake,[31],16.3 % ID/g
same,Drug uptake,[32],1.35 %ID
same,Drug uptake,[33],0.26 % ID/g
same,Drug uptake,[34],5.23 % ID/g
same,Drug uptake,[35],13.3 % ID/g
same,Drug uptake,[36],3.11 % ID/g
same,Drug uptake,[37],7.6 % ID/g
same,Drug uptake,[38],2.91 % ID/g
same,Drug uptake,[39],1.89 % ID/g
same,Drug uptake,[40],1.44 % ID/g
same,Drug uptake,[41],2.92 % ID/g
same,Drug uptake,[42],3.11 % ID/g
same,Drug uptake,[43],11.8 % ID/g
same,Drug uptake,[44],4.44 % ID/g
same,Drug uptake,[45],2.42 % ID/g
same,Drug uptake,[46],0.81 % ID/g
C[C@H]1CN(c2nc3ccc(F)cc3s2)CCCN1C(=O)c1ccccc1-n1nccn1,Ki,Orexin receptor type 2,5.17 nM
same,Ki,[1],0.64 nM
same,Ratio Ki,[2],8.08
Cc1ccc(-n2nccn2)c(C(=O)N2CCCN(c3nc4cc(F)ccc4s3)C[C@@H]2C)c1,Ki,Orexin receptor type 2,12.8 nM
same,Ki,[1],1.14 nM
same,Ratio Ki,[2],11.3

# From ChEMBL document CHEMBL6120977, “Structure-Affinity-Pharmacokinetics Relationships of Novel 18F-Labeled 1,4-Diazepane Derivatives for Orexin 1 Receptor Imaging” (J Med Chem, 2024)
